From article PMC9866095, “Efficient Synthesis and In Vitro Hypoglycemic Activity of Rare Apigenin Glycosylation Derivatives” (Molecules, 2023)

Molecular target: α-glucosidase
Assay: pNPG hydrolysis, absorbance at […] nm, commercial enzyme
Format: biochemical

IC50	Structure (SMILES)
485 µM	O=C(O)CCC(=O)OC[C@H]1O[C@@H](Oc2cc(O)c3c(=O)cc(-c4ccc(O)cc4)oc3c2)[C@H](O)[C@@H](O)[C@@H]1O [SAG, apigenin-7-O-β-(6″-O-succinyl)-D-glucoside]
532 µM	O=c1cc(-c2ccc(O)cc2)oc2cc(O[C@@H]3O[C@H](CO)[C@@H](O)[C@H](O)[C@H]3O)cc(O)c12 [AG, apigenin-7-O-β-(6″-O)-D-glucoside]

Structure (SMILES)	IC50
O=c1cc(-c2ccc(O)cc2)oc2cc(O)cc(O)c12 [Apigenin]	525 µM
